Holding throughout (assay): NCI-60 cell line screen, 48 h
The subject of assay [1] is MDA-MB-435.
Assay [2] has as its system HCC-2998 colon.
The test system of assay [3] is HCT-116 colon.
The test system of assay [4] is UO-31 renal.
Assay [5] concerns COLO 205 colon.
For assay [6], the system named is HL-60(TB) leukemia.

“And” between values parts separate entries of the source, which are not always exact repeats. Identical values can stand only once.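 96-well plates; 48 h exposure; 5 concentrations. Endpoints by linear interpolation between flanking doses. Not reached: highest tested concentration assigned. GI50: concentration for 50% inhibition of growth. TGI: total growth inhibition.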

Consider `COc1ccc2c(c1)CCC1C2CC[C@@]2(C)C1CC1=CC(COC(C)=O)C3C(=O)c4ccccc4C(=O)C3C12` (some centres not stated), for which the GI50 was greater than 100 µM in assay [1]; greater than 100 µM in assay [2]; greater than 100 µM in assay [3]; 61.7 µM in assay [4]; greater than 100 µM in assay [5]; 76.3 µM in assay [6]. For the same compound, the TGI in assay [1], in assay [2], in assay [3], in assay [4], in assay [5] and in assay [6] was greater than 100 µM throughout.
As for `Cc1ccc(Cl)cc1Nc1nc(C(F)(F)F)ccc1C(=O)N1CCN(c2ccc(F)cc2)CC1`, the GI50 in assay [1] is 14.2 µM; in assay [2] it was 12.7 µM; in assay [3], 11.9 µM; in assay [4] it was 4.49 µM; in assay [5] it was 15.8 µM; in assay [6] it was 12.7 µM. In addition, the TGI came out at 29.6 µM in assay [1]; 26 µM in assay [2]; 26.3 µM in assay [3]; 22.5 µM in assay [4]; 30.2 µM in assay [5]; 37.8 µM in assay [6].
Regarding `O=c1c2ccccc2[se]n1-c1cccnc1`, the TGI was 46.4 µM in assay [1]; 33.8 µM in assay [2]; greater than 100 µM in assay [3]; 93.7 µM in assay [4]; 45.1 µM in assay [5]; 91.5 µM in assay [6].
Regarding `COC(=O)/C=C/c1cc(O)c2oc(-c3ccc(O)c(O)c3)c(C(=O)OC)c2c1`, the GI50 in assay [1] was 0.0295 µM; in assay [2], 2.09 µM; in assay [3] it was 0.329 µM; in assay [4], 1.11 µM; in assay [5], 8.27 µM; in assay [6], 0.14 µM. The TGI in assay [1] worked out at 0.108 µM; in assay [2], 11.2 µM; in assay [3], 9.14 µM; in assay [4] it was 10.6 µM; in assay [5], 23.6 µM; in assay [6] it was 1.52 µM.
As to `COc1ncnc(C2CC2)c1-c1ncc2cnn(Cc3ccc(-c4nc(C(F)(F)F)cn4C(C)C)cc3)c2n1`, the GI50 in assay [1] is 19.8 µM; in assay [2], 23.3 µM; in assay [3], 22.2 µM; in assay [4], 3.25 µM; in assay [5], 23.5 µM; in assay [6] it was 31 µM. Besides, the TGI in assay [1] is 51.6 µM; in assay [2], greater than 100 µM; in assay [3] it was greater than 100 µM; in assay [4], 36.7 µM; in assay [5], 89.4 µM; in assay [6], greater than 100 µM.
For the compound `Cc1ccc(C(SCC(N)C(=O)O)(c2ccccc2)c2ccc(C)cc2)cc1` (configuration not stated), the GI50 in assay [1] was 0.0323 µM; in assay [2] it was 0.236 µM; in assay [3], 0.0449 µM; in assay [4], 7.96 µM; in assay [5] it was 0.241 µM; in assay [6], 0.235 µM. The TGI in assay [1] is 0.14 µM; in assay [2], 2.77 µM; in assay [3], 7.06 µM; in assay [4] it was greater than 55 µM; in assay [5], 0.732 µM; in assay [6] it was 0.588 µM.
On to `CCOc1nc(-c2ccccc2)cc2c(O)c(-c3nnco3)[nH]c(=O)c12`, for which the GI50 in assay [1] was 8.48 µM; in assay [2] it was 5.57 µM; in assay [3], 6.07 µM; in assay [4], 2.11 µM; in assay [5], 5.74 µM; in assay [6] it was 5.86 µM. For the same compound, the TGI in assay [1], in assay [2], in assay [3], in assay [4], in assay [5] and in assay [6] was greater than 100 µM throughout.
`CC/C(=C(/c1ccc(OCCN(C)C)cc1)c1ccc(OC(=O)CCCCC(=O)c2c(C)[nH]c(/C=C3\N=C(c4ccc[nH]4)C=C3OC)c2C)cc1)c1ccccc1`: the GI50 is 7 µM in assay [1]; 13.2 µM in assay [2]; 3.55 µM in assay [3]; 2.81 µM in assay [4]; 10.7 µM in assay [5]; 18 µM in assay [6]. Also, the TGI came out at 46.1 µM in assay [1]; 26.7 µM in assay [2]; 13.9 µM in assay [3]; 21.3 µM in assay [4]; 23.2 µM in assay [5]; 41.9 µM in assay [6].
Consider `CC(C)=C[C@@H]1C[C@H](C)[C@H]2CC[C@H](C)C3=C2[C@](O)(OC3=O)[C@]1(C)O`, for which the GI50 in assay [1], in assay [2], in assay [3], in assay [4], in assay [5] and in assay [6] was greater than 100 µM each time. In addition, the TGI in assay [1], in assay [2], in assay [3], in assay [4], in assay [5] and in assay [6] was greater than 100 µM in each case.
For the compound `O=C(Nc1ccc(OS(=O)(=O)c2ccccc2)cc1)C12CC3CC(CC(C3)C1)C2`, the GI50 in assay [1] is greater than 100 µM; in assay [2], 5.48 µM; in assay [3], 2.5 µM; in assay [4] it was 18.7 µM; in assay [5], 0.873 µM; in assay [6], 2.68 µM. The TGI in assay [1], in assay [2], in assay [3], in assay [4], in assay [5] and in assay [6] was greater than 100 µM throughout.
`C=C(C)C(CC=C(C)C)CC12CC(CC=C(C)C)C(C)(C)C(CC=C(C)C)(C(=O)C(Cc3ccc(O)c(O)c3)=C1O)C2=O` (configuration not stated): the TGI in assay [1], in assay [2], in assay [3], in assay [4], in assay [5] and in assay [6] was greater than 100 µM in each case.
`O=C1NC(=Nc2ccccc2)S/C1=C\c1ccc2ncccc2c1`: the GI50 in assay [1] is 0.62 µM; in assay [2] it was greater than 25 µM; in assay [3] it was 1.14 µM; in assay [4], greater than 25 µM; in assay [5], greater than 25 µM; in assay [6], 1.42 µM. Also, the TGI in assay [1] was 1.88 µM; in assay [2], greater than 25 µM; in assay [3], greater than 25 µM; in assay [4], greater than 25 µM; in assay [5] it was greater than 25 µM; in assay [6], greater than 25 µM.
Consider `Cn1c(=O)c2c(nc(Nc3cc(=O)[nH]c(=O)[nH]3)n2Cc2ccccc2)n(C)c1=O`, for which the GI50 was greater than 100 µM in assay [1]; greater than 100 µM in assay [2]; greater than 100 µM in assay [3]; 77 µM in assay [4]; greater than 100 µM in assay [5]; greater than 100 µM in assay [6]. Also, the TGI in assay [1], in assay [2], in assay [3], in assay [4], in assay [5] and in assay [6] was greater than 100 µM in each case.
In the case of `CCOC(=O)/C=C/C(C(=O)/C=C/c1ccc(OC2CCCCO2)c(OC)c1)=C(O)\C=C\c1ccc(OC2CCCCO2)c(OC)c1` (configuration not stated), the GI50 in assay [1] was 3.23 µM; in assay [2], 9.53 µM; in assay [3], 2.09 µM; in assay [4], 2.63 µM; in assay [5], 3.1 µM; in assay [6] it was 3.01 µM. Moreover, the TGI in assay [1] is 13.6 µM; in assay [2] it was 21.6 µM; in assay [3] it was 4.76 µM; in assay [4], 7.56 µM; in assay [5], 11.4 µM; in assay [6] it was greater than 100 µM.
As for `Cn1cc(C2=C(c3ccc4ccccc4c3)C(=O)NC2=O)c2ccccc21`, the GI50 is 0.885 µM in assay [1]; greater than 25 µM in assay [2]; 15.6 µM in assay [3]; greater than 12.4 µM in assay [4]; 20.8 µM in assay [5]; greater than 21.4 µM in assay [6]. Further, the TGI in assay [1] is greater than 13.6 µM; in assay [2], greater than 25 µM; in assay [3], greater than 25 µM; in assay [4], greater than 25 µM; in assay [5] it was greater than 25 µM; in assay [6], greater than 25 µM.
For `Ic1ccc(Nc2nc3nonc3nc2Nc2ccc(I)cc2)cc1`, the GI50 in assay [2] was 0.326 µM; in assay [3], 0.135 µM; in assay [5], 0.265 µM; in assay [6] it was 0.175 µM. In addition, the TGI in assay [2] is greater than 100 µM; in assay [3], greater than 100 µM; in assay [5], 0.937 µM; in assay [6], 0.545 µM.
On to `CC(SC(C)C(=O)N/N=C/c1cccc(Cl)c1)C(=O)N/N=C\c1cccc(Cl)c1` (configuration not stated), for which the GI50 was 5.02 µM in assay [1]; 8 µM in assay [2]; 2.65 µM in assay [3]; 14.8 µM in assay [4]; 11.6 µM in assay [5]; 6.24 µM in assay [6]. Moreover, the TGI in assay [1] was 23.9 µM; in assay [2], 75.8 µM; in assay [3], 7.94 µM; in assay [4] it was 94.4 µM; in assay [5] it was 38.9 µM; in assay [6], greater than 100 µM.
As to `CCn1c(-c2cc(OC)cc(OC)c2)nc2c1C(=O)c1ccccc1C2=O`, the TGI in assay [1], in assay [2], in assay [3], in assay [5] and in assay [6] was greater than 100 µM each time.
For `CC(C)(C)C(=O)OCOP(=O)(OCOC(=O)C(C)(C)C)C1CCCN(O)C1=O` (configuration not stated), the GI50 in assay [1] is 0.955 µM; in assay [2], 0.446 µM; in assay [4] it was 0.306 µM; in assay [5], 0.6 µM; in assay [6], 0.538 µM. Further, the TGI was determined as 22.5 µM in assay [1]; 5.59 µM in assay [2]; 6.41 µM in assay [4]; 3.64 µM in assay [5]; 3.53 µM in assay [6].
With `C[As](C)SC1OC(CO)C(O)C1O` (configuration not stated), the GI50 in assay [1] was 0.154 µM; in assay [3], 0.302 µM; in assay [4] it was 0.0973 µM; in assay [5] it was 0.505 µM; in assay [6], 0.454 µM. Further, the TGI in assay [1] was 0.746 µM; in assay [3], 1.24 µM; in assay [4], 0.555 µM; in assay [5], 10.8 µM.
Turning to `COC(C)(C)C1=CCC(C)CC1` (configuration not stated), the TGI in assay [1], in assay [2], in assay [3], in assay [4] and in assay [5] was greater than 100 µM in each case.
Regarding `OCCN1CN(CCO)CN(c2nc(N3CN(CCO)CN(CCO)C3)nc(N3CN(CCO)CN(CCO)C3)n2)C1`, in assay [4], the GI50 was 1.5 ng/mL and the TGI is 4.4 ng/mL.
For the compound `CC1OC2CC(=O)OC2C2=C1C(=O)c1c(O)cccc1C2=O` (configuration not stated), the GI50 is 0.0493 µM in assay [1]; 0.236 µM in assay [2]; 0.0286 µM in assay [3]; 0.0725 µM in assay [4]; 0.0177 µM in assay [5]. Further, the TGI in assay [1] came out at 0.214 µM; in assay [2], 0.558 µM; in assay [3] it was 0.107 µM; in assay [4], 0.23 µM; in assay [5], 0.0405 µM.
Consider `COc1ccc(N(C)c2ncnc3occ(C)c23)cc1`, for which the GI50 in assay [2], in assay [3], in assay [4], in assay [5] and in assay [6] was less than 0.01 µM throughout. Also, the TGI in assay [2] was 0.0463 µM; in assay [3] it was 0.197 µM; in assay [4], greater than 100 µM; in assay [5] it was less than 0.0105 µM; in assay [6], less than 0.01 µM.
With `O=C(CCCn1ccnc1[N+](=O)[O-])NCCn1cncc1[N+](=O)[O-]`, the TGI in assay [1], in assay [3], in assay [4], in assay [5] and in assay [6] was greater than 100 µM in each case.
`Cc1c2cccnc2c(C)c2c1c1cc(CO)ccc1n2C`: the GI50 in assay [1] is 3.06 µM; in assay [2] it was 3.38 µM; in assay [3], 0.42 µM; in assay [4], 1.41 µM; in assay [5] it was 1.51 µM. In addition, the TGI was 13.7 µM in assay [1]; 13.9 µM in assay [2]; 3.26 µM in assay [3]; 10.5 µM in assay [4]; 6.11 µM in assay [5].
As to `COC(=O)c1cc2c(cc1O)[C@@H](NC(C)=O)CCc1cc(OC)c(OC)c(OC)c1-2`, the GI50 was less than 0.01 µM in assay [1]; 0.0355 µM in assay [2]; 0.0164 µM in assay [3]; 0.0626 µM in assay [4]; 0.0236 µM in assay [5]. In addition, the TGI is 1.23 µM in assay [1]; greater than 100 µM in assay [4]; 1.56 µM and 1.18 µM in assay [5].

For the origin of these results see PubChem BioAssay (NCI).
